Data from ChEMBL document CHEMBL5728826, “Benzimidazole compounds and derivatives as EGFR inhibitors” (2021).
pIC50: −log10 of the molar value.

Biological target: Epidermal growth factor receptor (Homo sapiens, UniProt P00533)
Assay: Biochemical EGFR Inhibition Assays ([…]): 5 μL of EGFR enzyme form in assay buffer (50 mM HEPES pH 7.3, 10 mM MgCl2, 1 mM EGTA, 0.01% Tween 20, 2 mM DTT) are dispensed into columns 1-23, than 5 μL of ATP and ULight-poly-GT substrate (PerkinElmer; TRF0100-M) mix in assay buffer is added to all wells (final assay concentration of the ULight-poly-GT substrate 200 nM). Each of the different …

Chain of Epidermal growth factor receptor (P00533 whole entry): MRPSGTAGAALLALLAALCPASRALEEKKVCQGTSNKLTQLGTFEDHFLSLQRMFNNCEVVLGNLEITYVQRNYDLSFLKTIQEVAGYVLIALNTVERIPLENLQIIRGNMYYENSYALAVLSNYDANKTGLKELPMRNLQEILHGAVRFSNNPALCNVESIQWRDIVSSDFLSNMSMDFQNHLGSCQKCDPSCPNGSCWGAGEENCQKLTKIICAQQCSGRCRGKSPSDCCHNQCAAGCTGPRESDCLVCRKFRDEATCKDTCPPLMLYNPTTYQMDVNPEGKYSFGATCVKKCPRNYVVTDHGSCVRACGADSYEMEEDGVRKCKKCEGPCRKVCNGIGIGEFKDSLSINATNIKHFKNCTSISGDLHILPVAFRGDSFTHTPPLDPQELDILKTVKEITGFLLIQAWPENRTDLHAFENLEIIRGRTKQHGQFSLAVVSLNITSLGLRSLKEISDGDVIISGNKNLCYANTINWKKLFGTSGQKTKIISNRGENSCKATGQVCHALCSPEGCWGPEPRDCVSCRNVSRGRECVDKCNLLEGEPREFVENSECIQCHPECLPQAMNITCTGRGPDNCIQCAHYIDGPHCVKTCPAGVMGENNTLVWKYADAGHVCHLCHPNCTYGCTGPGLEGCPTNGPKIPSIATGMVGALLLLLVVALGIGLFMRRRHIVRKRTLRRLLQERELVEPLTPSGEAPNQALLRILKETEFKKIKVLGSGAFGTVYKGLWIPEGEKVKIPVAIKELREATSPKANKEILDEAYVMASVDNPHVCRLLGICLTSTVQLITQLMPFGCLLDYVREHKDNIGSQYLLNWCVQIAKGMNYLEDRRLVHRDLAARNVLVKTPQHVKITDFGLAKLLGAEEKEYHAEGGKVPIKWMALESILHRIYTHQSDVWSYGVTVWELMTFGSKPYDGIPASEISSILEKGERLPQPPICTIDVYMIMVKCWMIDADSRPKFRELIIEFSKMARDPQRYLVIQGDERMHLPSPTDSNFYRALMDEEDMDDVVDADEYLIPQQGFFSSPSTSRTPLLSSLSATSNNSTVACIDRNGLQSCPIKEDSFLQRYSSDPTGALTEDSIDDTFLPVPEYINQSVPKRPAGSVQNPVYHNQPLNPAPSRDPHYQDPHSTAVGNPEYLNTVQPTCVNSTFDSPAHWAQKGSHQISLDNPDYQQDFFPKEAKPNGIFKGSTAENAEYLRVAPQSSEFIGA

SMILES | pIC50
Cn1cc(-c2cc(C(=O)/N=c3\[nH]c4ccccc4n3CC(C)(C)O)ccn2)cn1 | < 4.00
COc1ccncc1-c1cc(C(=O)/N=c2\[nH]c3cc(C4CCN(C(C)=O)CC4)ccc3n2CC(C)(C)O)ccn1 | 6.66
